According to ChEMBL document CHEMBL4673323, “Novel molecular hybrids of indoline spiropyrans and α-lipoic acid as potential photopharmacological agents: Synthesis, structure, photochromic and biological properties” (Bioorg Med Chem Lett, 2021):
The source made the active and inactive calls. The calls are words filed in the database; no cut-off is given here.

Tests used:
[1] = system: HeLa; assay: Antioxidant activity in human HeLa cells assessed as increase in cellular thiol level at 2 mM measured after 24 hrs by Thiol-tracker violet molecular probe based assay relative to control; type: functional
[2] = system: HeLa; assay: Antioxidant activity in human HeLa cells assessed as decrease in nuclear ROS at 500 uM measured after 24 hrs by CellROX reagent based flow cytometry relative to control; type: functional
[3] = system: HeLa; assay: Antioxidant activity in human HeLa cells assessed as decrease in mitochondrial ROS at 500 uM measured after 24 hrs by CellROX reagent based flow cytometry relative to control; type: functional
[4] = Cytotoxicity against human HeLa cells assessed as decrease in cell viability at 2 mM measured after 24 hrs relative to 8% DMSO control; type: cell-based; details: read-out: INH
[5] = Cytotoxicity against human HeLa cells assessed as effect on cell viability at 2 mM measured after 24 hrs (Rvb (8% DMSO) = 79.08 +/- 10.78 %); type: cell-based; details: read-out: Activity
[6] = Cytotoxicity against human HeLa cells assessed as effect on cell viability at 500 uM measured after 24 hrs (Rvb (2% DMSO) = 93.5 +/- 3.19 %); type: cell-based; details: read-out: Activity
[7] = Photochromic activity assessed as photoinduced isomerization by measuring increase in intensity of the absorption at 568 to 574 nm by UV spectra
[8] = Effect on biochemical parameters of gross oxidative status in human HeLa cells at 500 uM measured after 24 hrs relative to control; type: ADME, cell-based
[9] = system: HeLa; assay: Antioxidant activity in human HeLa cells assessed as increase in cellular thiol level at 500 uM measured after 24 hrs by Thiol-tracker violet molecular probe based assay relative to control; type: functional
[10] = system: HeLa; assay: Antioxidant activity in human HeLa cells assessed as increase in cellular thiol level at 500 uM measured after 24 hrs by Thiol-tracker violet molecular probe based assay; type: functional, cell-based
[11] = system: HeLa; assay: Antioxidant activity in human HeLa cells assessed as decrease in cytosolic ROS at 500 uM measured after 24 hrs by CellROX orange reagent based flow cytometry; type: functional, cell-based
[12] = Cytotoxicity against human HeLa cells assessed as decrease in cell viability at 500 uM measured after 24 hrs relative to 2% DMSO control; type: cell-based; details: read-out: INH
[13] = system: HeLa; assay: Antioxidant activity in human HeLa cells assessed as decrease in nuclear ROS at 500 uM measured after 24 hrs by CellROX reagent based flow cytometry; type: functional, cell-based
[14] = system: HeLa; assay: Antioxidant activity in human HeLa cells assessed as decrease in mitochondrial ROS at 500 uM measured after 24 hrs by CellROX reagent based flow cytometry; type: functional, cell-based
[15] = system: HeLa; assay: Antioxidant activity in human HeLa cells assessed as decrease in cytosolic ROS at 500 uM measured after 24 hrs by CellROX orange reagent based flow cytometry relative to control; type: functional
[16] = system: HeLa; assay: Cytotoxicity against human HeLa cells assessed as decrease in cell viability measured after 24 hrs; type: cell-based

SMILES	Activity [1]	inhibition at 500 µM [2]	inhibition at 500 µM [3]	cytotoxicity at 24 h, 2000 µM [4]	viability at 24 h, 2000 µM [5]	viability at 24 h, 500 µM [6]	Activity [7]	Activity [8]	Activity [9]	Activity [10]	inhibition [11]	cytotoxicity at 24 h, 500 µM [12]	inhibition [13]	inhibition [14]	inhibition at 500 µM [15]	IC50 [16]
O=C(O)CCCCC1CCSS1 (stereo not drawn) [LIPOIC ACID, ALPHA]	90%	31%	31%	32.7%	51.8%	94.7%	–	–	–	–	–	–	–	–	–	–
CN1c2ccccc2C(C)(C)C12C=Cc1c(ccc3ccc(OC(=O)CCCCC4CCSS4)cc13)O2 (stereo unspecified)	–	–	–	–	73.4%	95%	inactive	Non-Toxic	35%	Active	inactive	–	–	–	–	–
CN1c2ccccc2C(C)(C)C12C=Cc1c(ccc3ccc(O)cc13)O2 (stereo unspecified)	–	–	–	–	66.5%	84.5%	inactive	–	–	–	–	11.9%	–	–	–	–
COc1ccc2c(c1)C(C)(C)C1(C=Cc3c(ccc4ccc(OC(=O)CCCCC5CCSS5)cc34)O1)N2C (stereo unspecified)	–	–	–	–	77.9%	89.3%	Active	–	30%	Active	–	8.3%	inactive	inactive	78%	–
COc1ccc2c(c1)C(C)(C)C1(C=Cc3c(ccc4ccc(O)cc34)O1)N2C (stereo unspecified)	–	–	–	93.7%	5%	4.19%	–	–	–	–	–	98.4%	–	–	–	46.2 µM
